In patent US20210137117A1, “HERBICIDAL MIXTURES” (Bayer Aktiengesellschaft, priority 2017, published 2021):
Where “and” joins values, the source holds several entries; their conditions need not be identical. Identical values can stand only once.

Key:
Experiment in all cases: Pre-emergence action against weeds (greenhouse)
Format in all cases: in vivo
[1] = tested on: RAPRA (Raphanus raphanistrum)
From the text: (§1) Depending on the trial conditions, the soil of the standard field soil is sterile or not sterile.
(§2) The amount of water used for spray application was 300l/ha.
RAPRA (Raphanus raphanistrum)—Charlock, jointed
(§3) Insofar as herbicidal effects of the compositions according to the invention compared to mixtures of the prior art or compared to components applied individually against economically important mono- and dicotyledonous harmful plants were the centre of attention, the synergistic herbicidal activities were calculated using Colby's formula (cf. S. R. Colby; Weeds 15 (1967), 20-22): […]

[2] = tested on: ALOMY—sensitive (Alopecurus myosuroides)
From the text: as §1, §2
ALOMY—sensitive (Alopecurus myosuroides) sensitive to customary herbicidally active compounds.
as §3

[3] = tested on: HORVS (Hordeum vulgare)
From the text: as §1, §2
HORVS (Hordeum vulgare)—Barley, spring
as §3

[4] = tested on: VERHE (Veronica hederaefolia)
From the text: as §1, §2
VERHE (Veronica hederaefolia)—Speedwell, iveleaf
as §3

[5] = tested on: ALOMY—resistant (Alopecurus myosuroides)
From the text: as §1, §2
ALOMY—resistant (Alopecurus myosuroides) resistant to herbicidally active compounds of the HRAC groups A and B; population mixture of field origin having increased metabolic resistance (IMR) and some target site resistance (TSR).
as §3

[6] = tested on: LOLRI—resistant (Lolium rigidum)
From the text: as §1, §2
LOLRI—resistant (Lolium rigidum) resistant to herbicidally active compounds of the HRAC groups A and B; population mixture of field origin having increased metabolic resistance (IMR) and some target site resistance (TSR).
as §3

[7] = tested on: TRZAS (Triticum aestivum)
From the text: as §1, §2
TRZAS (Triticum aestivum)—Wheat, spring
as §3

[8] = tested on: AVEFA (Avenafatua)
From the text: as §1, §2
AVEFA (Avenafatua)—Wild oat
as §3

[9] = tested on: CENCY (Centaurea cyanus)
From the text: as §1, §2
CENCY (Centaurea cyanus)—Cornflower
as §3

[10] = tested on: BROST (Bromus sterilis)
From the text: as §1, §2
BROST (Bromus sterilis)—Bromegrass, barren
as §3

[11] = tested on: SORHA (Sorghum halepense)
From the text: as §1, §2
SORHA (Sorghum halepense)—Johnsongrass
as §3

[12] = tested on: PAPRH (Papaver rhoeas)
From the text: as §1, §2
PAPRH (Papaver rhoeas)—Poppy, common
as §3

[13] = tested on: LOLRI—sensitive (Lolium rigidum)
From the text: as §1, §2
LOLRI—sensitive (Lolium rigidum) sensitive to customary herbicidally active compounds.
as §3

[14] = tested on: EMEAU (Emex australis)
From the text: as §1, §2
EMEAU (Emex australis)—Cathead
as §3

[15] = tested on: BRSNW (Brassica napus)
From the text: as §1, §2
BRSNW (Brassica napus)—Rape, winter
as §3

[16] = pre-emergence, dose 100 g AS/ha

Structure (SMILES): CC1(C)CON(Cc2ccc(Cl)cc2Cl)C1=O [2-[(2,4-dichlorophenyl)methyl]-4,4-dimethyl-3-isoxazolidinone]
- herbicidal action ([1]; 10 g AS/ha): 0%
- herbicidal action ([1]; 25 g AS/ha): 5%
- herbicidal action ([1]; 50 g AS/ha): 20%
- herbicidal action ([1]; 100 g AS/ha): 40%
- herbicidal action ([1]; 200 g AS/ha): 50%
- herbicidal action ([1]; 250 g AS/ha): 60%
- herbicidal action ([1]; 400 g AS/ha): 80%
- herbicidal action ([1]; 500 g AS/ha): 90%
- Herbicidal action RAPRA [1, 16]: 40
- herbicidal action ([2]; 10 g AS/ha): 0%
- herbicidal action ([2]; 25 g AS/ha): 0%
- herbicidal action ([2]; 50 g AS/ha): 20%
- herbicidal action ([2]; 100 g AS/ha): 60%
- herbicidal action ([2]; 200 g AS/ha): 95%
- herbicidal action ([2]; 250 g AS/ha): 93%
- herbicidal action ([2]; 400 g AS/ha): 95%
- herbicidal action ([2]; 500 g AS/ha): 95%
- Herbicidal action ALOMY sensitive [2, 16]: 60
- herbicidal action ([3]; 10 g AS/ha): 0%
- herbicidal action ([3]; 25 g AS/ha): 2%
- herbicidal action ([3]; 50 g AS/ha): 5%
- herbicidal action ([3]; 100 g AS/ha): 15%
- herbicidal action ([3]; 200 g AS/ha): 40%
- herbicidal action ([3]; 250 g AS/ha): 50%
- herbicidal action ([3]; 400 g AS/ha): 60%
- herbicidal action ([3]; 500 g AS/ha): 60%
- Herbicidal action (crop damage) HORVS [3, 16]: 15
- herbicidal action ([4]; 10 g AS/ha): 15%
- herbicidal action ([4]; 25 g AS/ha): 40%
- herbicidal action ([4]; 50 g AS/ha): 70%
- herbicidal action ([4]; 100 g AS/ha): 80%
- herbicidal action ([4]; 200 g AS/ha): 90%
- herbicidal action ([4]; 250 g AS/ha): 95%
- herbicidal action ([4]; 400 g AS/ha): 95%
- herbicidal action ([4]; 500 g AS/ha): 95%
- Herbicidal action VERHE [4, 16]: 80
- herbicidal action ([5]; 10 g AS/ha): 0%
- herbicidal action ([5]; 25 g AS/ha): 0%
- herbicidal action ([5]; 50 g AS/ha): 10% and 20%
- herbicidal action ([5]; 100 g AS/ha): 60%
- herbicidal action ([5]; 200 g AS/ha): 80%
- herbicidal action ([5]; 250 g AS/ha): 93%
- herbicidal action ([5]; 400 g AS/ha): 95%
- herbicidal action ([5]; 500 g AS/ha): 95%
- Herbicidal action ALOMY resistant [5, 16]: 60
- herbicidal action ([6]; 10 g AS/ha): 0%
- herbicidal action ([6]; 25 g AS/ha): 5%
- herbicidal action ([6]; 50 g AS/ha): 60% and 30%
- herbicidal action ([6]; 100 g AS/ha): 70% and 75%
- herbicidal action ([6]; 200 g AS/ha): 80%
- herbicidal action ([6]; 250 g AS/ha): 80%
- herbicidal action ([6]; 400 g AS/ha): 94%
- herbicidal action ([6]; 500 g AS/ha): 94%
- Herbicidal action LOLRI resistant [6, 16]: 75
- herbicidal action ([7]; 10 g AS/ha): 0%
- herbicidal action ([7]; 25 g AS/ha): 0%
- herbicidal action ([7]; 50 g AS/ha): 0%
- herbicidal action ([7]; 100 g AS/ha): 5%
- herbicidal action ([7]; 200 g AS/ha): 40%
- herbicidal action ([7]; 250 g AS/ha): 50%
- herbicidal action ([7]; 400 g AS/ha): 60%
- herbicidal action ([7]; 500 g AS/ha): 70%
- Herbicidal action (crop damage) TRZAS [7, 16]: 5
- herbicidal action ([8]; 10 g AS/ha): 0%
- herbicidal action ([8]; 25 g AS/ha): 5%
- herbicidal action ([8]; 50 g AS/ha): 15%
- herbicidal action ([8]; 100 g AS/ha): 50%
- herbicidal action ([8]; 200 g AS/ha): 70%
- herbicidal action ([8]; 250 g AS/ha): 75%
- herbicidal action ([8]; 400 g AS/ha): 75%
- herbicidal action ([8]; 500 g AS/ha): 80%
- Herbicidal action AVEFA [8, 16]: 50
- herbicidal action ([9]; 10 g AS/ha): 0%
- herbicidal action ([9]; 25 g AS/ha): 0%
- herbicidal action ([9]; 50 g AS/ha): 10%
- herbicidal action ([9]; 100 g AS/ha): 70%
- herbicidal action ([9]; 200 g AS/ha): 88%
- Herbicidal action CENCY [9, 16]: 70
- herbicidal action ([10]; 10 g AS/ha): 0%
- herbicidal action ([10]; 25 g AS/ha): 0%
- herbicidal action ([10]; 50 g AS/ha): 0%
- herbicidal action ([10]; 100 g AS/ha): 20%
- herbicidal action ([10]; 200 g AS/ha): 30%
- herbicidal action ([10]; 250 g AS/ha): 65%
- herbicidal action ([10]; 400 g AS/ha): 70%
- herbicidal action ([10]; 500 g AS/ha): 75%
- Herbicidal action BROST [10, 16]: 20
- herbicidal action ([11]; 10 g AS/ha): 0%
- herbicidal action ([11]; 25 g AS/ha): 0%
- herbicidal action ([11]; 50 g AS/ha): 30%
- herbicidal action ([11]; 100 g AS/ha): 40%
- herbicidal action ([11]; 200 g AS/ha): 60%
- Herbicidal action SORHA [11, 16]: 40
- herbicidal action ([12]; 250 g AS/ha): 95%
- herbicidal action ([12]; 400 g AS/ha): 95%
- herbicidal action ([12]; 500 g AS/ha): 95%
- herbicidal action ([13]; 10 g AS/ha): 0%
- herbicidal action ([13]; 25 g AS/ha): 30%
- herbicidal action ([13]; 50 g AS/ha): 70%
- herbicidal action ([13]; 100 g AS/ha): 70%
- herbicidal action ([13]; 200 g AS/ha): 90%
- herbicidal action ([13]; 250 g AS/ha): 95%
- herbicidal action ([13]; 400 g AS/ha): 95%
- herbicidal action ([13]; 500 g AS/ha): 95%
- Herbicidal action LOLRI sensitive [13, 16]: 70
- herbicidal action ([14]; 10 g AS/ha): 0%
- herbicidal action ([14]; 25 g AS/ha): 0%
- herbicidal action ([14]; 50 g AS/ha): 10%
- herbicidal action ([14]; 200 g AS/ha): 40%
- herbicidal action ([14]; 250 g AS/ha): 60%
- herbicidal action ([14]; 400 g AS/ha): 70%
- herbicidal action ([14]; 500 g AS/ha): 70%
- Herbicidal action EMEAU [14, 16]: 20
- herbicidal action ([15]; 10 g AS/ha): 0%
- herbicidal action ([15]; 25 g AS/ha): 0%
- herbicidal action ([15]; 50 g AS/ha): 0%
- herbicidal action ([15]; 100 g AS/ha): 0%
- herbicidal action ([15]; 200 g AS/ha): 5%
- herbicidal action ([15]; 250 g AS/ha): 20%
- herbicidal action ([15]; 400 g AS/ha): 20%
- herbicidal action ([15]; 500 g AS/ha): 20%
- Herbicidal action BRSNW [15, 16]: 0
